# Data: patent US9284321B2, “Piperazino[1,2-a]indol-1-ones and [1,4]diazepino[1,2-a]indol-1-one” (Hoffmann-La Roche Inc., priority 2012, dated 2016)
# Tests used:
# [1] = tested on: human embryonic stem cell derived neural stem cells (NSCs); assay: Neural Stem Cell Proliferation Assay (neurogenesis assay, ATP levels by CellTiterGlo); assay type: cell-based; details: 96 h, compound concentration at which 150% activity of control (100%) is reached, NSC proliferation by ATP level after 4 days incubation, dose response 8 μM to 8 nM
# Experimental: Neurogenic properties of small molecules are determined based on the proliferation of human embryonic stem cell derived neural stem cells (NSCs) which were derived via a dual smad inhibition as previously described (Chambers, S. M., et al., Highly efficient neural conversion of human ES and iPS cells by dual inhibition of SMAD signaling, Nature biotechnology, 2009. 27(3): p. 275-80.)
# Compounds respond is measured by the increase in cells based on ATP levels
# (Promega:CellTiterGlo®) after an incubation period of 4 days.
# NSCs are thawed and expanded over 3 passages. On the 14th day, NSCs are seeded in Polyornithin/Laminin coated 384 well plates at a cell density of 21′000 cells/cm^2 in a media volume of 38 μl.
# 4 hours after cell seeding, compound solutions are added at a volume of 2 μl. Stock solutions of the compounds (water, 5% DMSO) are diluted to obtain a dose response (11 points, dilution factor is 2), ranging from 8 μM to 8 nM. Controls are run to consistently determine the neurogenic properties of the cells:
# Negative (neutral) control is cell culture Media (final DMSO concentration: 0.25%).
# • 1. cell culture Media+100 ng/ml FGF2 (final DMSO concentration: 0.1%) • 2. cell culture Media+20 ng/ml EGF (final DMSO concentration: 0.1%) • 3. cell culture Media+100 ng/ml Wnt3a (final DMSO concentration: 0.1%)
# After 4 days incubation at 37° C., 5% CO2, the amount of ATP per well is quantified. The ATP concentration is proportional to the cell number. ATP is quantified by using the Promega CellTiterGlo® kit. The CellTiterGlo® reagents contain a cell lysis buffer, a thermo stable luciferase (UltraGlo™ recombinant luciferase), magnesium and luciferin. Luciferin reacts with ATP producing oxyluciferin, AMP and light. The luminescence signal is proportional to the ATP content.
# The value of negative (neutral) control is determined for each assay plate by taking the average of 16 negative control wells. The neurogenic compound response is calculated for each compound as (compound/Negative Control)*100.
# The values of EC150 from the dose response curve are determined for each test compound. The EC150 is the compound concentration at which 150% activity of control (100%) is reached.
SMILES,melting point [°C],EC (150% of control) [1] [µM]
"COc1ccc(-c2cc(F)cc3cc4n(c23)CCNC4=O)cc1 [Example 19, 8-Fluoro-6-(4-methoxy-phenyl)-3,4-dihydro-2H-pyrazino[1,2-a]indol-1-one]",274.5,0.007
"O=C1NCCCn2c1cc1cc(F)cc(-c3ccncc3)c12 [Example 20, 9-Fluoro-7-pyridin-4-yl-2,3,4,5-tetrahydro-[1,4]diazepino[1,2-a]indol-1-one]",309,0.037
"O=C1NCCn2c1cc1cc(F)cc(-c3ccncc3)c12 [Example 21, 8-Fluoro-6-pyridin-4-yl-3,4-dihydro-2H-pyrazino[1,2-a]indol-1-one]",323.5,0.036
"O=C1NCCn2c1cc1cc(F)cc(-c3ccc(F)c(F)c3)c12 [Example 22, 6-(3,4-Difluoro-phenyl)-8-fluoro-3,4-dihydro-2H-pyrazino[1,2-a]indol-1-one]",289.5,0.037
"O=C1NCCn2c1cc1cc(F)cc(-c3ccc(Cl)cc3)c12 [Example 23, 6-(4-Chloro-phenyl)-8-fluoro-3,4-dihydro-2H-pyrazino[1,2-a]indol-1-one]",322,0.019
"Cc1ccc(-c2cc(F)cc3cc4n(c23)CCNC4=O)cc1 [Example 24, 8-Fluoro-6-p-tolyl-3,4-dihydro-2H-pyrazino[1,2-a]indol-1-one]",271.5,0.017
"O=C1NCCn2c1cc1cc(F)cc(-c3ccc(C(F)(F)F)cc3)c12 [Example 25, 8-Fluoro-6-(4-trifluoromethyl-phenyl)-3,4-dihydro-2H-pyrazino[1,2-a]indol-1-one]",346,0.023
"O=C1NCCCn2c1cc1cc(F)cc(-c3ccc(F)c(F)c3)c12 [Example 28, 7-(3,4-Difluoro-phenyl)-9-fluoro-2,3,4,5-tetrahydro-[1,4]diazepino[1,2-a]indol-1-one]",230.5,0.1
"O=C1NCCCn2c1cc1cc(F)cc(-c3ccc(Cl)cc3)c12 [Example 29, 7-(4-Chloro-phenyl)-9-fluoro-2,3,4,5-tetrahydro-[1,4]diazepino[1,2-a]indol-1-one]",263.5,0.03
"Cc1ccc(-c2cc(F)cc3cc4n(c23)CCCNC4=O)cc1 [Example 30, 9-Fluoro-7-p-tolyl-2,3,4,5-tetrahydro-[1,4]diazepino[1,2-a]indol-1-one]",258.5,0.036
"O=C1NCCCn2c1cc1cc(F)cc(-c3ccc(C(F)(F)F)cc3)c12 [Example 31, 9-Fluoro-7-(4-trifluoromethyl-phenyl)-2,3,4,5-tetrahydro-[1,4]diazepino[1,2-a]indol-1-one]",257,0.056
"O=C1NCCn2c1cc1c(F)c(F)cc(-c3ccc(F)cc3)c12 [Example 32, 8,9-Difluoro-6-(4-fluoro-phenyl)-3,4-dihydro-2H-pyrazino[1,2-a]indol-1-one]",283.5,2.6
"COc1ccc(-c2cc(F)c(F)c3cc4n(c23)CCNC4=O)cc1 [Example 33, 8,9-Difluoro-6-(4-methoxy-phenyl)-3,4-dihydro-2H-pyrazino[1,2-a]indol-1-one]",227.5,0.22
"O=C1NCCn2c1cc1c(F)c(F)cc(-c3ccc(Cl)cc3)c12 [Example 34, 6-(4-Chloro-phenyl)-8,9-difluoro-3,4-dihydro-2H-pyrazino[1,2-a]indol-1-one]",327,1.4
"O=C1NCCn2c1cc1c(F)c(F)cc(-c3ccc(F)c(F)c3)c12 [Example 35, 6-(3,4-Difluoro-phenyl)-8,9-difluoro-3,4-dihydro-2H-pyrazino[1,2-a]indol-1-one]",317.5,2.6
"O=C1NCCCn2c1cc1c(F)c(F)cc(-c3ccc(F)cc3)c12 [Example 36, 9,10-Difluoro-7-(4-fluoro-phenyl)-2,3,4,5-tetrahydro-[1,4]diazepino[1,2-a]indol-1-one]",287,3.9

SMILES,melting point [°C],EC (150% of control) [1] [µM]
"COc1ccc(-c2cc(F)c(F)c3cc4n(c23)CCCNC4=O)cc1 [Example 37, 9,10-Difluoro-7-(4-methoxy-phenyl)-2,3,4,5-tetrahydro-[1,4]diazepino[1,2-a]indol-1-one]",207.5,0.45
"O=C1NCCn2c1cc1cc(F)c(F)c(-c3ccc(F)cc3)c12 [Example 38, 7,8-Difluoro-6-(4-fluoro-phenyl)-3,4-dihydro-2H-pyrazino[1,2-a]indol-1-one]",286.5,0.03
"COc1ccc(-c2c(F)c(F)cc3cc4n(c23)CCNC4=O)cc1 [Example 39, 7,8-Difluoro-6-(4-methoxy-phenyl)-3,4-dihydro-2H-pyrazino[1,2-a]indol-1-one]",274.5,0.005
"O=C1NCCCn2c1cc1cc(F)c(F)c(-c3ccc(F)cc3)c12 [Example 40, 8,9-Difluoro-7-(4-fluoro-phenyl)-2,3,4,5-tetrahydro-[1,4]diazepino[1,2-a]indol-1-one]",223.5,0.024
"COc1ccc(-c2c(F)c(F)cc3cc4n(c23)CCCNC4=O)cc1 [Example 41, 8,9-Difluoro-7-(4-methoxy-phenyl)-2,3,4,5-tetrahydro-[1,4]diazepino[1,2-a]indol-1-one]",182.5,0.006
"O=C1NCCCn2c1cc1cc(F)c(F)c(-c3ccc(F)c(F)c3)c12 [Example 42, 7-(3,4-Difluoro-phenyl)-8,9-difluoro-2,3,4,5-tetrahydro-[1,4]diazepino[1,2-a]indol-1-one]",225,0.21
"O=C1NCCCn2c1cc1cc(F)c(F)c(-c3ccc(Cl)cc3)c12 [Example 43, 7-(4-Chloro-phenyl)-8,9-difluoro-2,3,4,5-tetrahydro-[1,4]diazepino[1,2-a]indol-1-one]",232.5,0.08
"O=C1NCCn2c1cc1cc(F)c(F)c(-c3ccc(F)c(F)c3)c12 [Example 44, 6-(3,4-Difluoro-phenyl)-7,8-difluoro-3,4-dihydro-2H-pyrazino[1,2-a]indol-1-one]",305,0.3
"O=C1NCCn2c1cc1cc(F)c(F)c(-c3ccc(Cl)cc3)c12 [Example 45, 6-(4-Chloro-phenyl)-7,8-difluoro-3,4-dihydro-2H-pyrazino[1,2-a]indol-1-one]",332.5,0.076
"O=C1NCCCn2c1cc1cc(Cl)cc(-c3ccc(F)c(F)c3)c12 [Example 46, 9-Chloro-7-(3,4-difluoro-phenyl)-2,3,4,5-tetrahydro-[1,4]diazepino[1,2-a]indol-1-one]",230.5,0.69
"Cc1ccc(-c2cc(Cl)cc3cc4n(c23)CCCNC4=O)cc1 [Example 47, 9-Chloro-7-p-tolyl-2,3,4,5-tetrahydro-[1,4]diazepino[1,2-a]indol-1-one]",227,0.6
"O=C1NCCCn2c1cc1cc(Cl)cc(-c3ccc(F)cc3)c12 [Example 48, 9-Chloro-7-(4-fluoro-phenyl)-2,3,4,5-tetrahydro-[1,4]diazepino[1,2-a]indol-1-one]",260,0.43
"O=C1NCCn2c1cc1cc(Cl)cc(-c3ccc(Cl)cc3)c12 [Example 49, 8-Chloro-6-(4-chloro-phenyl)-3,4-dihydro-2H-pyrazino[1,2-a]indol-1-one]",320,0.045
"O=C1NCCn2c1cc1cc(Cl)cc(-c3ccc(F)c(F)c3)c12 [Example 50, 8-Chloro-6-(3,4-difluoro-phenyl)-3,4-dihydro-2H-pyrazino[1,2-a]indol-1-one]",277.5,0.13
"O=C1NCCn2c1cc1cc(Cl)cc(-c3ccc(F)cc3)c12 [Example 51, 8-Chloro-6-(4-fluoro-phenyl)-3,4-dihydro-2H-pyrazino[1,2-a]indol-1-one]",298,0.098
"COc1ccc(-c2cc(Cl)cc3cc4n(c23)CCNC4=O)cc1 [Example 52, 8-Chloro-6-(4-methoxy-phenyl)-3,4-dihydro-2H-pyrazino[1,2-a]indol-1-one]",282.5,0.022
